Results as given in patent US20210186972A1, “FORMULATIONS AND METHODS FOR THE PREVENTION AND TREATMENT OF TUMOR METASTASIS AND TUMORIGENESIS” (THE UNITED STATES OF AMERICA, AS REPRESENTED BY THE …, priority 2018, published 2021).

Assays:
[1] = system: GFP-RPL29; assay: Ribosome synthesis, inducible GFP-RPL29 cell line; type: cell-based; settings: induced after exposure for 5 hours
Procedure: FIG. 24 is a panel showing that metarrestin interferes with ribosomal biogenesis. An inducible RPL29-GFP-expressing cell line synthesizes RPL29-GFP when treated with tetracyclin (2nd column). When cells were treated with 1 μM metarrestin before tetracycline induction, the newly synthesized proteins accumulated in the nucleoli and nuclei (right most panels) compared to the DMSO control treated cells (2nd from right panels). Scale bars=5 μm.
To examine whether the disruption of the nucleolar structure impacts ribosome synthesis, a cell line expressing inducible GFP-RPL29 (a ribosomal subunit) was used.

[2] = system: PANC1 cells; assay: 24-well Transwell MATRIGEL invasion assay, PANC1; type: cell-based, human; settings: 0.6 μM, within 24 hours
Procedure: FIG. 3 is a bar graph showing that metarrestin inhibits MATRIGEL gelatinous protein mixture (BD Biosciences, Franklin Lakes, N.J.) invasion at below micromolar concentrations (0.6 μM) within 24 hours of treatment (* p<0.05 and ** p<0.01 in comparison to DMSO [control]). The invasion (%) is on the y-axis and the metarrestin [microM] is on the x-axis. The cell line PC3M is shown in white bars and the cell line PANC1 (human pancreas) is shown in black bars.
24-well Transwell Permeable MATRIGEL gelatinous protein mixture Invasion assay: The effect of metarrestin on invasion activity of PANC1 and PC3M cells was measured using 24-well Transwell Permeable MATRIGEL gelatinous protein mixture Invasion Chambers with 8 μm pores (Corning, Cat #354480). Membranes were rehydrated with 500 μL of serum-free DMEM (Thermo Fisher, Cat #11965084) both inside the chamber and inside the well and incubated for two hours at 37° C., 5% CO2. Cells were detached, washed, resuspended in serum-free DMEM, counted, and diluted to a final concentration of 1×10^5 cells/mL in six separate 15 mL conical tubes. […] 750 μL of DMEM plus 10% FBS acting as a chemoattractant were placed in the basal wells. Plates were incubated at 37° C., 5% CO2 for 24 hours. […]

[3] = in vivo; parameters: species or system BALB/c mice; settings: mouse
Procedure: Metarrestin was administered to female BALB/c mice, n=3 in the single dose and the repeat doses were administered to SCID-beige mice, n=3 per time point. The repeat dose study mice were given daily intraperitoneal injections for 4 weeks, with concentration measured 24 h after the last dose. Metarrestin was formulated in 5% NMP+20% PEG400+75% (10% […] in water).
BALB/c mice, 17-19 g, female, n=66, were purchased and had free access to food and water. They were dosed with metarrestin at 5 or 25 mg/kg (10 ml/kg) in 5% NMP [NMP (Sigma-Aldrich cat #270458), 20% PEG400 (Sigma-Aldrich cat #202398), and 75% 10% HPBCD (Sigma-Aldrich cat #H107)] via lower left abdominal quadrant injection (n=33 each dose). The animals were anesthetized with isoflurane and restrained manually at the designated time points. Approximately 120 μL of blood were taken from the animals into K2EDTA tubes via retro-orbital puncture. Blood samples were placed on ice and centrifuged (2,000 g, 5 min under 4° C.) to obtain plasma samples within 15 minutes. An aliquot of 20 μL plasma sample was protein-precipitated with 200 μL acetonitrile that contained 50 ng/mL IS (dexamethasone). […] Twenty-four hours after the final dose, the concentrations of metarrestin in plasma were analyzed.

[4] = system: RPA194 and UBF occupancy on rDNA; assay: Quantitative ChIP on rDNA; type: cell-based; settings: HeLa cells
Procedure: ChIP-qPCR: 2-5×10^7 cells were used for each ChIP assay according to previously described protocols. Briefly, HeLa cells with or without metarrestin treatment were crosslinked with 1% formaldehyde for 10 min at room temperature with rotation, and then crosslinking was quenched by the addition of glycine. Fixed chromatin was sonicated by Covaris and used for immunoprecipitation with the indicated antibody. Isolated DNA was analyzed by qPCR using SYBR green on CFX Connect Real-Time PCR Detection System (BioRad). The comparative cycle threshold method was applied to evaluate occupancy from replicate PCR reactions relative to the level of input. […]
Psoralen crosslinks active accessible DNA under UV light without displacing nucleosomes or transcription factors, or changing chromatin states. […] To examine the interactions between Pol I transcription factors and rDNA, quantitative ChIP experiments were carried out using primer sets across promoter and coding regions of rDNA (FIG. 29-30E).

Structure (SMILES): N=c1c2c(-c3ccccc3)c(-c3ccccc3)n(Cc3ccccc3)c2ncn1[C@H]1CC[C@H](O)CC1 [metarrestin]
- Newly synthesized GFP-RPL29 in the cytoplasm [1]: largely undetected in the cytoplasm
- Production of GFP-RPL29 and its nucleolar localization [1]: appeared unchanged
- Invasion of PANC1 cells [2]: effectively blocked the invasion
- half-life ([3]; female, BALB/c, ip, 25 mg/kg): 4.6 to 5.5 h
- Bioavailability [3]: high bioavailability
- UBF binding to rDNA [4]: without significant impact on UBF binding
- RPA194 occupancy on rDNA promoter and coding regions ([4]; p<0.01): significantly reduced RPA194 occupancy
